For data set [1], the target named is T1, PBP 3 (Pseudomonas aeruginosa, UniProt G3XD46).
T1 construct: made in house; host or cells: E. coli
The data set is described as follows: PBP inhibition assay (nitrocefin substrate), PBP 3. It counts as biochemical. The following applies: NI = no inhibition at 100 μM, read-out: IC50 (μM)/pIC50 (converted). As to the method: (§1) Kinetic and inhibition analyses, and ^19F NMR studies[10] against bacterial β-lactamases were performed as described. The FC-5 cephalosporin[9] was used as substrate for BcII, VIM-2, IMP-1, NDM-1, SPM-1, TEM-1 and OXA-10, meropenem[28] for CphA and nitrocefin[34] for PBP 3 and PBP 5.
(§2) In brief IC50 values were determined by preincubation of the appropriate amount of enzyme with the cyclic boronates in the assay buffers for 10 min at room temperature prior to the initiation of the assay by the addition of the appropriate substrate. The enzyme concentrations used are the following: 1 nM BcII, 100 nM VIM-2, 10 nM IMP-1, 10 nM NDM-1, 1 nM SPM-1, 1 nM TEM-1, 1 nM OXA-10, 2.5 nM CphA, 4 μM PBP 3 and 5 μM PBP 5; note that the final concentrations are stated. The assay buffers used are the following: 50 mM HEPES, pH 7.2 supplemented with 1 μg BSA, 1 μg ZnSO4 and 0.01% Triton for BcII, VIM-2, IMP-1, NDM-1 and SPM-1, 15 mM MES, pH 6.5 for CphA, 50 mM HEPES, pH 7.2 supplemented with 200 mM NaCl and 0.01% Triton 100 for TEM-1, 100 mM sodium phosphate, pH 7.2 supplemented with 50 mM NaHCO3 and 0.01% Triton 100 for OXA-10 and 50 mM HEPES, pH 7.2 supplemented with 200 mM NaCl and 0.01% Triton 100 for PBP 3 and PBP 5. The amount of substrates used is the following: 5 μM for BcII, VIM-2, IMP-1, NDM-1 and SPM-1, 10 μM for TEM-1 and OXA-10, 125 μM for CphA and 25 μM for PBP 3 and PBP 5; note that the final concentrations are stated.
(§3) The experiments were performed using a PHERAstar FS microplate reader (BMG Labtech) at room temperature (24–25 °C). All enzymes and inhibitors were prepared in the specific assay buffer. The kinetic values in this study are the means from at least three independent measurements; at least nine different concentrations of the inhibitor were used to determine the kinetic parameters (IC50). The IC50 values were determined using the software package Graph Prism 5.

Data set [2] has as its target T2, VIM-2 (Escherichia coli, UniProt Q5U7L7).
T2 construct: made in house; host or cells: E. coli
The experiment in a line: Fluorogenic β-lactamase inhibition assay (FC-5 substrate), VIM-2. It counts as biochemical. The method, then: as §1, §2, §3

Data set [3] deals with T3, BcII (Bacillus cereus, UniProt P04190).
T3 construct: made in house; host or cells: E. coli
T3 sequence (P04190 31-257): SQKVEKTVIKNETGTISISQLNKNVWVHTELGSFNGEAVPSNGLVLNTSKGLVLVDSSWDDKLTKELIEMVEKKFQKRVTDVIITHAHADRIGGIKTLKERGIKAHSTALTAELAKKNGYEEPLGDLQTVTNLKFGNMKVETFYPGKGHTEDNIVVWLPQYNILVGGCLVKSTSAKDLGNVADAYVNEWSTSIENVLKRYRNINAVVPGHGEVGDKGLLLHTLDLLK
The data set is described as follows: Fluorogenic β-lactamase inhibition assay (FC-5 substrate), BcII. The class given is biochemical. The method, then: as §1, §2, §3

Data set [4] has as its target T4, OXA-10 (Pseudomonas aeruginosa, UniProt P14489).
T4 construct: made in house; host or cells: E. coli
The data set is described as follows: Fluorogenic β-lactamase inhibition assay (FC-5 substrate), OXA-10. It counts as biochemical. As to the method: as §1, §2, §3

Data set [5] addresses T5, TEM-1 (Escherichia coli, UniProt P62593).
T5 construct: made in house; host or cells: E. coli
The experiment in a line: Fluorogenic β-lactamase inhibition assay (FC-5 substrate), TEM-1. The class given is biochemical. As to the method:
as §1, §2, §3

Data set [6] deals with HEK293 cells. The experiment in a line: Cytotoxicity assay (MTS). The following applies: human HEK293 cells, concentrations up to 100 μM, 24 h. It counts as cell-based. As to the method:
HEK293 cells were seeded (2,000 per well) in normal DMEM in 96-well plates.[34] After 24 h, wells were dosed with titrated concentration of compounds in 1% dimethyl sulphoxide (DMSO)—final volume of media about 100 μl. Following a further 24 h incubation period, 20 μl tetrazolium (MTS, CellTiter96Aqueous One Solution (Promega)) was added to the media in each well. The plate was incubated at 37 °C, 5% CO2 for 4 h in the dark before absorbance was read at 490 nm to determine cell proliferation values.

Data set [7] deals with T6, NDM-1 (Klebsiella pneumoniae, UniProt C7C422).
T6 construct: made in house; host or cells: E. coli
T6 sequence (C7C422 29-270, looked up, species assumed): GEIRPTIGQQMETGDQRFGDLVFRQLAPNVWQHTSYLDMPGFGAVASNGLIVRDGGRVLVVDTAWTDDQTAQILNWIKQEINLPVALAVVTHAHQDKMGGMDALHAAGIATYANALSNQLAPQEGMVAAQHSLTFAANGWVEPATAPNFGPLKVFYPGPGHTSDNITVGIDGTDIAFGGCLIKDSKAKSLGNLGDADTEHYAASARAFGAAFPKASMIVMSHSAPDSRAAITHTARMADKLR
The data set is described as follows: Fluorogenic β-lactamase inhibition assay (FC-5 substrate), NDM-1. It counts as biochemical. As to the method: as §1, §2, §3

Data set [8] has as its target T7, IMP-1 (Serratia marcescens, UniProt P52699).
T7 construct: made in house; host or cells: E. coli
The experiment in a line: Fluorogenic β-lactamase inhibition assay (FC-5 substrate), IMP-1. The class given is biochemical. As to the method: as §1
In brief IC50 values were determined by preincubation of the appropriate amount of enzyme with the cyclic boronates in the assay buffers for 10 min at room temperature prior to the initiation of the assay by the addition of the appropriate substrate. The enzyme concentrations used are the following: 1 nM BcII, 100 nM VIM-2, 10 nM IMP-1, 10 nM NDM-1, 1 nM SPM-1, 1 nM TEM-1, 1 nM OXA-10, 2.5 nM CphA, 4 μM PBP 3 and 5 μM PBP 5; note that the final concentrations are stated. […]
The experiments were performed using a PHERAstar FS microplate reader (BMG Labtech) at room temperature (24–25 °C). […] The IC50 values were determined using the software package Graph Prism 5.

For data set [9], the target named is SPM-1 (Pseudomonas aeruginosa, UniProt Q8G9Q0). The experiment in a line: Fluorogenic β-lactamase inhibition assay (FC-5 substrate), SPM-1. It counts as biochemical. The method, then: as §1, §2, §3
SPM-1, sequence (Q8G9Q0 entry or part of it): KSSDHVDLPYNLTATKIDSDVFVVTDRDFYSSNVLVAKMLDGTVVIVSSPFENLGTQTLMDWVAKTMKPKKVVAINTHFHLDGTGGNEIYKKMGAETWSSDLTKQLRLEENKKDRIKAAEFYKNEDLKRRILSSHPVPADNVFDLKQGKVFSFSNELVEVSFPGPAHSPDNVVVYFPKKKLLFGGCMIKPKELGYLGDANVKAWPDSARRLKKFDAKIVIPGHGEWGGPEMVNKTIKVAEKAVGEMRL
For data set [10], the target named is T8, CphA (Aeromonas hydrophila, UniProt P26918).
T8 construct: made in house; host or cells: E. coli
T8 sequence (P26918 28-254): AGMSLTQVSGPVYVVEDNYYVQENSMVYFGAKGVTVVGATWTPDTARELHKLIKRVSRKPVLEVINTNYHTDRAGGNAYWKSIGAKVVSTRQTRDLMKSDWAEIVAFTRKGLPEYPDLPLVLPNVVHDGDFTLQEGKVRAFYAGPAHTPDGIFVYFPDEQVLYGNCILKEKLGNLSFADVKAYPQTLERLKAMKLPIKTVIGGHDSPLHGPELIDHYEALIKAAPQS
The experiment in a line: B2 MBL inhibition assay (meropenem substrate), CphA. It counts as biochemical, Aeromonas hydrophilia. As to the method:
as §1, §2, §3

T5 sequence (P62593 24-286 limits assumed): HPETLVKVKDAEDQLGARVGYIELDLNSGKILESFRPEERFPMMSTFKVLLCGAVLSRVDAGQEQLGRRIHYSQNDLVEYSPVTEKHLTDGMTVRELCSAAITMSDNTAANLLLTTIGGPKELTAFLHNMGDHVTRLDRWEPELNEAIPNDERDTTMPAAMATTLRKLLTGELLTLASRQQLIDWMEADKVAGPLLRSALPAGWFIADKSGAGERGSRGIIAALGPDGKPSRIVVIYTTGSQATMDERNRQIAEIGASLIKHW
T1 sequence (G3XD46 whole entry): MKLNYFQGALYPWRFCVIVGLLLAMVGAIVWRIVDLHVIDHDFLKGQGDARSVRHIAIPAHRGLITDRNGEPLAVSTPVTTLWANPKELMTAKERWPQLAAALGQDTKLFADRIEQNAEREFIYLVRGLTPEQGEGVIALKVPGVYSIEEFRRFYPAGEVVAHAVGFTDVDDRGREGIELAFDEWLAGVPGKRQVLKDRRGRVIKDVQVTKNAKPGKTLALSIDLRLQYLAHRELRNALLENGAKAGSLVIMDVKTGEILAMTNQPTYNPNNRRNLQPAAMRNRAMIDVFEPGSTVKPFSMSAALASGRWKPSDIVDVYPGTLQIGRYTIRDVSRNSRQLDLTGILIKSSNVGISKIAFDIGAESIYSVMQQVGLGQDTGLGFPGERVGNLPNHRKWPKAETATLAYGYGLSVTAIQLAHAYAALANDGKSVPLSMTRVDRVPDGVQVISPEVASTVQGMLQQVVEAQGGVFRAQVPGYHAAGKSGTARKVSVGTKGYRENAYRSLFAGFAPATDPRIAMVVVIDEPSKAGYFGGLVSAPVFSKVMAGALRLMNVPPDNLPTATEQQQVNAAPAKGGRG
T4 sequence (P14489 20-266, species assumed): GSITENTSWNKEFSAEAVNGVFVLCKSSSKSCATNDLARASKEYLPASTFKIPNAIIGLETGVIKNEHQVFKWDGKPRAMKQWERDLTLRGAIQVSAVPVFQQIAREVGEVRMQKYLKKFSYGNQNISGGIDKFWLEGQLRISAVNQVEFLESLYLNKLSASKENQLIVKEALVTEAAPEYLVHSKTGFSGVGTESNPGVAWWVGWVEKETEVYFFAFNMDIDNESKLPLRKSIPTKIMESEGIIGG
T7 sequence (P52699 19-246, looked up, species assumed): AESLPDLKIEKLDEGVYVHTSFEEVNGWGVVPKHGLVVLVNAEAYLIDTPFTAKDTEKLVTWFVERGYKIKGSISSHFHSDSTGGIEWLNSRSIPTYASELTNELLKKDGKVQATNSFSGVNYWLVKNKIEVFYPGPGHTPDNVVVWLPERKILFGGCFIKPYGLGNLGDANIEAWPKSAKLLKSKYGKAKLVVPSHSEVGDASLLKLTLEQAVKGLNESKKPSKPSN

For `O=C(O)c1cccc2c1O[B-](O)(O)[C@@H](NC(=O)C1CCCCC1)C2` [compound 1], the IC50 is more than 100 µM in data set [1]; 0.051 µM in data set [2] (10 min preincubation); 7.27 µM in [3] (10 min preincubation); 0.001 µM in [5] (10 min preincubation); 2.04 µM in [7] (10 min preincubation); 24.1 µM in data set [9] (10 min preincubation). The same compound showed an IC50 in data set [10] (10 min preincubation) of 4.42 µM. Also, the pIC50 – broadly, −log10 of the IC50, conventionally taken in molar units – came to 7.3 in data set [2]; 5.1 in data set [3]; 6.4 in data set [4]; 8.9 in data set [5]; 5.7 in [7]; 4.6 in [8]. The negative-log IC50 (pIC50) in [9] turned out to be 4.6; in [10] it was 5.3. For the same compound, the cytotoxicity result in data set [6] is recorded as “Neither 1 nor 2 showed cytotoxicity”.
